These results are taken from PMC11939955, “Enhancing Antimicrobial Peptides from Frog Skin: A Rational Approach” (Biomolecules, 2025).

Several values for one entry are separate records, joined by “and”; a condition that tells them apart may be missing. Equal entries are not always repeated. Where no end group is shown, it is not given here.

Test [1] has as its system Human primary fibroblasts. In kind it is cell-based. The note with it: MTT, 24 h. The procedure: Human primary fibroblasts were kindly provided by CellSeq Solutions (Belo Horizonte, Brazil) and cultured in DMEM (Dulbecco’s Modified Eagle’s Medium, Gibco, Waltham, MA, USA) supplemented with 10% (v/v) fetal bovine serum (FBS; Gibco, Waltham, MA, USA) and a 1000 U/mL penicillin/streptomycin solution (Gibco, Waltham, MA, USA). The cells were maintained at 5% CO2, 37 °C, and 95% humidity.
To investigate the impact of the antimicrobial peptides hylin-Pul3, dHP3-31, dHP3-50, dHP3-50.137, dHP3-50.190, dHP3-84, and dHP3-84.39 on primary human fibroblast proliferation and viability, the 3-(4,5-dimethylthiazol-2-yl)-2,5-diphenyl tetrazolium bromide (MTT) metabolization assay (Sigma Aldrich; Misuri, USA) was performed. Human fibroblast cells (7 × 10^3 cells/well) were plated in a 96-well plate and treated with 0.5, 1, 5, 10, 25, 50, and 100 μg/mL of each peptide for 24 h. After this period, the cells were incubated with 5 mg/mL MTT for 4 h. The formazan crystals formed were solubilized by adding dimethyl sulfoxide (DMSO). The absorbance was measured at 570 nm using a spectrophotometer (Multiskan™ FC Microplate Photometer; Thermo Fisher Scientific, Waltham, MA, USA).

Test [2] is described as follows: Carboxyfluorescein (CF) release from LUVs. Also on record: species or system E. coli. The note with it: at the lowest peptide concentrations (8, 32, 50, 64 μM tested); 10 min, ex 490 nm/em 517 nm, duplicate. The procedure:
Large unilamellar vesicles (LUVs) were prepared with the total lipid extract of E. coli (Avanti Polar Lipids). For this, an aliquot of 1 mg of lipids dissolved in chloroform was deposited into a glass tube and dried by evaporation with nitrogen (N2). The glass tube underwent vacuum treatment to eliminate any residual solvent traces. The lipids were then hydrated in 200 μL of a 5,6-carboxyfluorescein (CF) solution (Sigma-Aldrich) at a concentration of 49 mM, pH 8, and 431 mOsm/kgH2O through nine cycles of heating (70 °C for 30 s), vortexing (1 min), and freezing (ice bath for 30 s). A polycarbonate filter with a pore size of 100 nm was employed to standardize the liposome size. Twenty-one extrusion cycles were conducted at 40 °C through the filter, resulting in LUVs with an average diameter of 100 nm. Size exclusion chromatography (Sephadex G-25) was utilized to remove the CF outside of the LUVs.
The fluorescence spectra of the CF-filled LUVs were measured using a FluoroMax3 Jobin Yvon spectrofluorometer (Horiba Jobin Yvon; Edison, NJ, USA). A 200 μL aliquot of the LUVs containing 100 μM CF was utilized for the experiment. Excitation was performed over a wavelength range of 400 to 540 nm, with the emission recorded at 517 nm. The peptides were added at various final concentrations (8, 32, 50, and 64 μM), and the fluorescence was assessed 10 min after each addition. […]

Test [3] relates to Staphylococcus aureus (ATCC 25923). In kind it is cell-based. The procedure: (§1) Hylin-Pul3 and six derivatives (dHP3-31, dHP3-50, dHP3-50.137, dHP3-50.190, dHP3-84, and dHP3-84.39) were tested against two Gram-positive bacteria, Staphylococcus aureus (ATCC 25923) and Streptococcus mutans (ATCC 25175), as well as three Gram-negative bacteria: Escherichia coli (ATCC 25922), Klebsiella pneumoniae (ATCC 13883), and Acinetobacter baumannii (ATCC 13304). The minimal inhibitory concentration (MIC) was determined using the microbroth dilution.
(§2) The peptides were serially diluted in concentrations ranging 128 to 0.25 μM, with gentamicin serving as a positive control, which was serially diluted to concentrations of 20 to 0.04 μM. Bacterial cultures were prepared in Mueller–Hinton (MH) medium to achieve a final inoculum concentration of 5 × 10^5 CFU/mL. […] All tests were performed in duplicate and repeated across three independent experiments.

Test [4] relates to Acinetobacter baumannii (ATCC 13304). In kind it is cell-based. The procedure: as §1, §2
For test [5], the system named is Streptococcus mutans (ATCC 25175). The test is classed as cell-based. The procedure: as §1, §2
For test [6], the system named is Klebsiella pneumoniae (ATCC 13883). The test is classed as cell-based. Particulars: ATCC 13883. The procedure: as §1, §2
For test [7], the system named is Escherichia coli (ATCC 25922). The test is classed as cell-based. The procedure:
as §1, §2

A further test has as its system E. coli (ATCC 25922). Put plainly: Synergistic checkerboard assay. The test is classed as cell-based, Escherichia coli. The procedure: Briefly, working solutions of the peptides were prepared and serially diluted by half across the rows and columns of a microplate, ensuring that each well contained a unique combination of peptide concentrations. The starting concentrations corresponded to the respective MIC values of each peptide, followed by two-fold serial dilutions.
Each well was filled with 50 µL of the peptide solution (individual or combined) and 50 µL of a bacterial suspension (1 × 10^6 CFU/mL), resulting in a final bacterial concentration of 5 × 10^5 CFU/mL. The individual peptide solutions served as positive controls, while the MH medium was employed as a negative control. The microplates were incubated at 37 °C overnight. The test was performed in three independent experiments. The fractional inhibitory concentrations index (ΣFIC) was calculated using the following equation: (1) ∑FIC =MIC(A) in combination/MIC(A) alone+MIC(B) in combination /MIC(B) alone
The FIC index (ΣFIC) was interpreted as follows: ΣFIC ≤ 0.5 indicated synergy; 0.5 < ΣFIC ≤ 4 indicated no effect; and 4 < ΣFIC indicated antagonism.

Another test is described as follows: ABTS assay. Particulars: peptides 0.05, 0.025, 0.0125 mg/mL, 1 h dark, absorbance 734 nm, triplicate. The procedure: The 2,2-azinobis-3-ethylbenzothiazoline-6-sulfonic acid (ABTS^+) free radical-scavenging activity was determined following the method in [38]. The ABTS⁺ radical cation was generated by diluting a 245 mM ammonium persulfate (APS) solution at a ratio of 1:100 with a 7 mM ABTS solution, followed by overnight incubation in the dark at room temperature. The ABTS^+ solution was then diluted with water to obtain an absorbance of 0.70 at 734 nm immediately before the assay using a Shimadzu 1240 UV-visible spectrophotometer (Kyoto, Japan). The peptides were dissolved in PBS, and 10 µL aliquots of each peptide solution were incubated with 190 µL of the ABTS^+ solution in triplicate, at final concentrations of 0.05, 0.025, and 0.0125 mg/mL. After a 1 h incubation in the dark, the absorbance was measured at 734 nm. The radical-scavenging activity was quantified against a standard curve, with the results expressed as milligrams of Trolox equivalents per milligram of peptide.

Test [8] can be described thus: DPPH radical-scavenging activity. Particulars: peptides 0.1, 0.05, 0.025 mg/mL, 30 min dark 25 °C, absorbance 515 nm, triplicate. The procedure:
A stock solution of 60 µM 1,1-diphenyl-2-picrylhydrazyl (DPPH) was prepared in ethanol, with its absorbance adjusted to 0.7 at 515 nm immediately before the assay using a Shimadzu 1240 UV–visible spectrophotometer (Kyoto, Japan). The peptides were dissolved in PBS, and 20 µL aliquots of each peptide solution were incubated with 180 µL of the ethanolic DPPH solution in triplicate, at final concentrations of 0.1, 0.05, and 0.025 mg/mL. For the negative control, 20 µL of PBS was mixed with 180 µL of the DPPH solution, while 20 µL of Trolox (6-hydroxy-2,5,7,8-tetramethylchroman-2-carboxylic acid) served as the positive control and standard. The mixtures were incubated in the dark at 25 °C for 30 min, after which, the absorbance was measured at 515 nm. The reduction in absorbance, indicative of DPPH-scavenging activity, was compared to a standard curve. The results were expressed as milligrams of Trolox equivalents per milligram of peptide (mg Trolox equivalents/mg of peptide).
(Loss of DPPH colour is used to gauge radical scavenging.)

[9] abbreviates: versus parent peptide hylin-Pul3.

As for RRGKLIPRLAKAIGRLIRK-OH [dHP3-84.39], the “Concentration at which fibroblast viability increased (proliferative effect)” value in test [1] is 5 μg/mL and 2.3 µM. In [2], the “CF release from LUVs” value came out at 50%. In addition, the “Antimicrobial Activity (MIC) S. aureus ATCC 25923” value in test [3] is 26.6 ± 8.3 µM. Also, the “Antimicrobial Activity (MIC) A. baumannii ATCC 13304” value in [4] is 16.0 ± 0.0 µM. For the same substance, the “Antimicrobial Activity (MIC) S. mutans ATCC 25175” value in [5] is over 64 µM. The “Antimicrobial Activity (MIC) K. pneumoniae ATCC 13883” value in [6] is given as 64.0 ± 0.0 µM. Further, in test [7], the “Antimicrobial Activity (MIC) E. coli ATCC 25922” value was 6.6 ± 4.8 µM.

Consider RAGALWPAIRGAIKKIIKK-NH2 [dHP3-50.137], for which the “Synergistic Activity, FIC Index (ΣFIC)” value in the test on E. coli (ATCC 25922) (combination of dHP3-84 and dHP3-50.137, E. coli ATCC 25922, 5 × 10^5 CFU/mL, 37 °C overnight, three independent experiments, ΣFIC ≤ 0.5 = synergy) was determined as 0.5. For the same substance, the “Improvement of combined activity compared to each peptide individually” value in the test on E. coli (ATCC 25922) (dHP3-84 + dHP3-50.137, E. coli) is listed as 2 fold. Further, in test [2], the “CF release from LUVs” value was found to be 50%. In “ABTS assay”, the “Antioxidant activity ABTS” value stood at 0.08 mg Trolox/mg. The “Antioxidant activity DPPH” value in test [8] was “did not reveal significant activity”. Moreover, the “Antimicrobial Activity (MIC) S. aureus ATCC 25923” value in test [3] is on record as 64.0 ± 0.0 µM. For the same substance, the “Antimicrobial Activity (MIC) A. baumannii ATCC 13304” value in [4] is recorded as 8.0 ± 0.0 µM. Moreover, the “Reduction in MIC against A. baumannii compared to hylin-Pul3” value in test [4] (setting [9]) worked out at 4 fold. Moreover, in test [5], the “Antimicrobial Activity (MIC) S. mutans ATCC 25175” value amounted to 32.0 ± 0.0 µM. Also, the “Antimicrobial Activity (MIC) K. pneumoniae ATCC 13883” value in test [6] is on record as 53.3 ± 16.5 µM. In addition, the “Antimicrobial Activity (MIC) E. coli ATCC 25922” value in test [7] was 4.0 ± 0.0 µM. For the same substance, the “Reduction in MIC of up to (Gram-negative strains) compared to hylin-Pul3” value in [7] (strain not given, largest reduction) was “up to 8 fold”. Also, the “Reduction in MIC against E. coli compared to hylin-Pul3” value in [7] (setting [9]) is 4 fold.
